Assay results reported in US20240158446A1, “CYCLIC COMPOUND HAVING SELECTIVE INHIBITORY ACTION ON KRAS OVER HRAS AND NRAS” (CHUGAI SEIYAKU KABUSHIKI KAISHA, priority 2021, published 2024).
Read-outs that look alike come from different tables or passages of the source.

What was measured:
[1] = system: human lung cancer strain NCI-H441;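 note: cell proliferation inhibition after four days measured by CellTiter-Glo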
[2] = molecular target: GDP-bound HRAS wild-type protein (Homo sapiens, UniProt P01112); assay: Binding to HRAS by surface plasmon resonance (SPR), Single Cycle Kinetics; conditions: SPR; for HRAS/KRAS (ratio of KD value for HRAS to KD value for KRAS): GDP-bound HRAS wild-type protein vs GDP-bound KRAS wild-type protein
Sequence of GDP-bound HRAS wild-type protein (P01112 whole entry): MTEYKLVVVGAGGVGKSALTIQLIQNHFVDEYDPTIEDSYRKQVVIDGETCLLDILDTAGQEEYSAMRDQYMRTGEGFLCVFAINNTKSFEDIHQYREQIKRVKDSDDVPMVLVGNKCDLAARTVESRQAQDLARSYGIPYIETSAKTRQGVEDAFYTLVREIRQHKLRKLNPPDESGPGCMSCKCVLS

[3] = molecular target: GDP-bound KRAS wild-type protein (Homo sapiens, UniProt P01116); assay: Binding to KRAS by surface plasmon resonance (SPR), Single Cycle Kinetics; conditions: SPR, Single Cycle Kinetics
Sequence of GDP-bound KRAS wild-type protein (P01116 whole entry): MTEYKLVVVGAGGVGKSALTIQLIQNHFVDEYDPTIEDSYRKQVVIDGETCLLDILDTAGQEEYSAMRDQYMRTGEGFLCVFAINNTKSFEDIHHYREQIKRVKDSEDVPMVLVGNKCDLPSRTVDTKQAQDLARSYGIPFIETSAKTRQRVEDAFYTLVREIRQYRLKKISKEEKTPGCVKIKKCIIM

[4] = molecular target: GDP-bound NRAS wild-type protein (Homo sapiens, UniProt P01111); assay: Binding to NRAS by surface plasmon resonance (SPR), Single Cycle Kinetics; conditions: SPR; for NRAS/KRAS (ratio of KD value for NRAS to KD value for KRAS): GDP-bound NRAS wild-type protein vs GDP-bound KRAS wild-type protein
Sequence of GDP-bound NRAS wild-type protein (P01111 whole entry): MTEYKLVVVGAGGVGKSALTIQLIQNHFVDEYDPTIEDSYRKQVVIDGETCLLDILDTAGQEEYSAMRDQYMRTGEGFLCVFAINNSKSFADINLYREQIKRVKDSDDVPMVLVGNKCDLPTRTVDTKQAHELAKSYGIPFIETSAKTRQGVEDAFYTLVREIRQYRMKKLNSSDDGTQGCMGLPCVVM

[5] = read-out: NCI-H441 cell proliferation inhibitory activity, 50% proliferation inhibitory concentration (IC50 value), NCI-H441, four days, CellTiter-Glo
[6] = GDP-bound KRAS wild-type protein, read-out: KRAS KD

SMILES	IC50 [1] [nM]	IC50 [1, 5] [nM]	Kd [3, 6] [nM]	Kd ([3]; 1:1 binding model, read-out: KD value with respect to GDP-bound KRAS wild-type protein) [nM]	HRAS/KRAS (ratio of KD value for HRAS to KD value for KRAS) [2]	ratio of the KD value with respect to GDP-bound HRAS wild-type protein to the KD value with respect to KRAS [2]	NRAS/KRAS (ratio of KD value for NRAS to KD value for KRAS) [4]	ratio of the KD value with respect to GDP-bound NRAS wild-type protein to the KD value with respect to KRAS [4]
CC[C@H](C)[C@@H]1NC(=O)[C@@H]2CCCCc3ccc(cc3)C[C@@H](C(=O)N(C)CC(=O)N[C@@H](CCc3ccc(C(F)(F)F)c(OC)c3)C(=O)N3C[C@H](OC4CCC4)C[C@H]3C(=O)NC3(CC(C)(C)C3)C(=O)N(C)[C@@H](C3CCCC3)C(=O)N(C)[C@H](C(=O)N(C)CC)CC(=O)N2C)N2CC/C=C\C[C@@H](C2=O)N(C)C(=O)CN(C)C1=O [PP3079]	1.8	1.8	0.05		B (a compound having 3 or more and less than 10 is denoted as B)	B (a compound having 3 or more and less than 10 is denoted as B)	A (a compound having 10 or more and less than 20 is denoted as A)	A (a compound having 10 or more and less than 20 is denoted as A)
CC[C@H](C)[C@@H]1NC(=O)[C@@H]2CCCCc3ccc(cc3)C[C@@H](C(=O)N(C)CC(=O)N[C@@H](CCc3ccc(C(F)(F)F)c(OC)c3)C(=O)N3C[C@H](OC4CCCC4)C[C@H]3C(=O)NC3(CC(C)(C)C3)C(=O)N(C)[C@@H](C3CCCC3)C(=O)N(C)[C@H](C(=O)N(C)C)CC(=O)N2C)N2CC/C=C\C[C@@H](C2=O)N(C)C(=O)CN(C)C1=O [PP3080]		4.3	0.037		B (a compound having 3 or more and less than 10 is denoted as B)	B (a compound having 3 or more and less than 10 is denoted as B)	A (a compound having 10 or more and less than 20 is denoted as A)	A (a compound having 10 or more and less than 20 is denoted as A)
CCCO[C@@H]1C[C@H]2C(=O)NC3(CC(C)(C)C3)C(=O)N(C)[C@@H](C3CCCC3)C(=O)N(C)[C@H](C(=O)N(C)CC)CC(=O)N(C)[C@H]3CCCc4ccc(cc4)C[C@@H](C(=O)N(C)CC(=O)N[C@@H](CCc4ccc(C(F)(F)F)c(OC)c4)C(=O)N2C1)N1CC/C=C\C[C@@H](C1=O)N(C)C(=O)CN(C1CC1)C(=O)[C@H]([C@@H](C)CC)NC3=O [PP3088]		15.1	0.34		B (a compound having 3 or more and less than 10 is denoted as B)	B (a compound having 3 or more and less than 10 is denoted as B)	B (a compound having 3 or more and less than 10 is denoted as B)	B (a compound having 3 or more and less than 10 is denoted as B)
CCCO[C@@H]1C[C@H]2C(=O)NC3(CC(C)(C)C3)C(=O)N(C)[C@@H](C3CCCC3)C(=O)N(C)[C@H](C(=O)N(C)CC)CC(=O)N(C)[C@H]3CCCc4ccc(cc4)C[C@@H](C(=O)N(C)CC(=O)N[C@@H](CCc4ccc(Cl)c(Cl)c4)C(=O)N2C1)N1CC/C=C\C[C@@H](C1=O)N(C)C(=O)CN(C)C(=O)[C@H]([C@@H](C)CC)NC3=O [PP3089]		27	0.33		B (a compound having 3 or more and less than 10 is denoted as B)	B (a compound having 3 or more and less than 10 is denoted as B)	B (a compound having 3 or more and less than 10 is denoted as B)	B (a compound having 3 or more and less than 10 is denoted as B)
CCO[C@@H]1C[C@H]2C(=O)N(C)C3(CC(C)(C)C3)C(=O)N(C)[C@@H](C3CCCC3)C(=O)N(C)[C@H](C(=O)N(C)C)CC(=O)N(C)[C@H]3CCCCCCc4ccc(cc4)C[C@@H](C(=O)N(C)CC(=O)N[C@@H](CCc4ccc(C(F)(F)F)c(OC)c4)C(=O)N2C1)N1CC/C=C\C[C@@H](C1=O)N(C)C(=O)CN(C)C(=O)[C@H]([C@@H](C)CC)NC3=O [PP3090]		1.3	0.033		B (a compound having 3 or more and less than 10 is denoted as B)	B (a compound having 3 or more and less than 10 is denoted as B)	A (a compound having 10 or more and less than 20 is denoted as A)	A (a compound having 10 or more and less than 20 is denoted as A)
CCCO[C@@H]1C[C@H]2C(=O)NC3(CC(C)(C)C3)C(=O)N(C)[C@@H](C3CCCC3)C(=O)N(C)[C@H](C(=O)N(C)C)CC(=O)N(C)[C@H]3CCCCc4ccc(cc4)C[C@@H](C(=O)N(C)CC(=O)N[C@@H](CCc4ccc(Cl)c(Cl)c4)C(=O)N2C1)N1CC/C=C\C[C@@H](C1=O)N(C)C(=O)CN(C)C(=O)[C@H]([C@@H](C)CC)NC3=O [PP3092]		7.4	0.09		A (a compound having 10 or more and less than 20 is denoted as A)	A (a compound having 10 or more and less than 20 is denoted as A)	A (a compound having 10 or more and less than 20 is denoted as A)	A (a compound having 10 or more and less than 20 is denoted as A)

Second part, led by results:

IC50 [1] [nM]	IC50 [1, 5] [nM]	Kd [3, 6] [nM]	Kd ([3]; 1:1 binding model, read-out: KD value with respect to GDP-bound KRAS wild-type protein) [nM]	SMILES	HRAS/KRAS (ratio of KD value for HRAS to KD value for KRAS) [2]	ratio of the KD value with respect to GDP-bound HRAS wild-type protein to the KD value with respect to KRAS [2]	NRAS/KRAS (ratio of KD value for NRAS to KD value for KRAS) [4]	ratio of the KD value with respect to GDP-bound NRAS wild-type protein to the KD value with respect to KRAS [4]
	1.9		0.068	CC[C@H](C)[C@@H]1NC(=O)[C@@H]2CCCCc3ccc(cc3)C[C@@H](C(=O)N(C)CC(=O)N[C@@H](CCc3ccc(C(F)(F)F)c(OC)c3)C(=O)N3CC4(CC4)C[C@H]3C(=O)NC3(CC(C)(C)C3)C(=O)N(C)[C@@H](C3CCCC3)C(=O)N(C)[C@H](C(=O)N(C)CC)CC(=O)N2C)N2CC/C=C\C[C@@H](C2=O)N(C)C(=O)CN(C)C1=O [PP3081]	B (a compound having 3 or more and less than 10 is denoted as B)	B (a compound having 3 or more and less than 10 is denoted as B)	A (a compound having 10 or more and less than 20 is denoted as A)	A (a compound having 10 or more and less than 20 is denoted as A)
	6.3	0.11		CC[C@H](C)[C@@H]1NC(=O)[C@@H]2CCCc3ccc(cc3)C[C@@H](C(=O)N(C)CC(=O)N[C@@H](CCc3ccc(C(F)(F)F)c(OC)c3)C(=O)N3C[C@H](OC4CCC4)C[C@H]3C(=O)NC3(CC(C)(C)C3)C(=O)N(C)[C@@H](C3CCCC3)C(=O)N(C)[C@H](C(=O)N(C)CC)CC(=O)N2C)N2CC/C=C\C[C@@H](C2=O)N(C)C(=O)CN(C)C1=O [PP3085]	B (a compound having 3 or more and less than 10 is denoted as B)	B (a compound having 3 or more and less than 10 is denoted as B)	A (a compound having 10 or more and less than 20 is denoted as A)	A (a compound having 10 or more and less than 20 is denoted as A)
	7.9	0.2		CC[C@H](C)[C@@H]1NC(=O)[C@@H]2CCCc3ccc(cc3)C[C@@H](C(=O)N(C)CC(=O)N[C@@H](CCc3ccc(C(F)(F)F)c(OC)c3)C(=O)N3C[C@H](OC4CCCC4)C[C@H]3C(=O)NC3(CC(C)(C)C3)C(=O)N(C)[C@@H](C3CCCC3)C(=O)N(C)[C@H](C(=O)N(C)CC)CC(=O)N2C)N2CC/C=C\C[C@@H](C2=O)N(C)C(=O)CN(C)C1=O [PP3086]	B (a compound having 3 or more and less than 10 is denoted as B)	B (a compound having 3 or more and less than 10 is denoted as B)	B (a compound having 3 or more and less than 10 is denoted as B)	B (a compound having 3 or more and less than 10 is denoted as B)
	6.9	0.22		CC[C@H](C)[C@@H]1NC(=O)[C@@H]2CCCc3ccc(cc3)C[C@@H](C(=O)N(C)CC(=O)N[C@@H](CCc3ccc(C(F)(F)F)c(OC)c3)C(=O)N3CC4(CC4)C[C@H]3C(=O)NC3(CC(C)(C)C3)C(=O)N(C)[C@@H](C3CCCC3)C(=O)N(C)[C@H](C(=O)N(C)CC)CC(=O)N2C)N2CC/C=C\C[C@@H](C2=O)N(C)C(=O)CN(C)C1=O [PP3087]	B (a compound having 3 or more and less than 10 is denoted as B)	B (a compound having 3 or more and less than 10 is denoted as B)	A (a compound having 10 or more and less than 20 is denoted as A)	A (a compound having 10 or more and less than 20 is denoted as A)
